Article PMC2779801, “Comparative biochemical analysis of HIV-1 subtype B and C integrase enzymes” (Retrovirology, 2009)
Where two headings read alike, the source gives them in different places.

Legend:
[1] = test system: Subtype C virus 4742; assay: Cell culture phenotypic drug susceptibility assay (p24 antigen) in cord blood mononuclear cells; format: cell-based, HIV-1
Procedure: (§1) Recombinant viruses (subtype B) (pNL4-3 and IIIb) and viruses obtained from either our primary HIV infection cohort or from long-term infected patients (subtype B and C) were amplified as previously described. Drug susceptibility was measured in cell culture-based phenotypic assays using cord blood mononuclear cells to determine the extent of […] HIV replication blockage by integrase inhibitors.

[2] = test system: Subtype C virus HB-1; assay: as above; format: cell-based, HIV-1
Procedure: as §1

[3] = test system: Subtype C virus 96USNG31; assay: as above; format: cell-based, HIV-1
Procedure: as §1

[4] = test system: Subtype B virus IIIb; assay: as above; format: cell-based, HIV-1; details: read-out: EC50 Values
Procedure: as §1

[5] = test system: Subtype C virus BG-05; assay: as above; format: cell-based, HIV-1
Procedure: as §1

[6] = test system: Subtype B virus 5331; assay: as above; format: cell-based, HIV-1; details: read-out: EC50 Values
Procedure: as §1

[7] = test system: Subtype B virus pNL4-3; assay: as above; format: cell-based, HIV-1; details: read-out: EC50 Values
Procedure: as §1

[8] = biological target: T1, HIV-1 subtype C integrase (Human immunodeficiency virus type 1, UniProt Q9QN97, C991S/F896H); details: for Inhibition of disintegration: increasing inhibitor concentration
Procedure: (§2) Oligonucleotide-based assays were performed to measure integrase enzymatic activities. All oligonucleotide probes were gel purified and phenol-chloroform extracted. INT1 oligonucleotide was radiolabeled using the T4 Polynucleotide Kinase kit (Ambion) with [γ-^32P] ATP (Perkin Elmer). Unincorporated nucleotides were discarded utilizing 'NucAway columns' (Ambion). A double stranded oligonucleotide substrate was obtained by mixing equal concentrations of INT1 and INT2, heating to 95°C and stepwise cooling to 37°C in 100 mM NaCl. The oligonucleotides T35 and SK70 were annealed to form a second double stranded oligonucleotide. INT1/2 mimicked the HIV-1 U5 long terminal repeat (LTR) and acted as a substrate for 3' processing. T35/SK70 acted as a site for integration of the processed INT1/2 fragment and mimicked host DNA.
Concentrations of enzymes used in the following reactions were optimized in a series of preliminary experiments. Integrase reactions were performed in a buffer containing 20 mM Hepes (pH 7.5), 30 mM NaCl, 1 mM dithiothreitol, 125 μM ZnCl2 and 0.125 pmol dsDNA substrate (INT1/2) in a final volume of 10 μl. Recombinant integrase (3.1 μM), and varying concentrations of integrase inhibitors or water/DMSO as control, were mixed and preincubated at 37°C for 15 min. 3' processing reactions were initiated by addition of 7.5 mM of MnCl2 and incubated at 37°C for 3 min unless otherwise indicated. For strand transfer reactions, 1.25 pmol of dsDNA template (T35/SK70) were added and the reaction mixture was further incubated at 37°C for 1 hour unless otherwise indicated. Reactions were stopped by adding 5 times the volume of gel loading dye (formamide containing 1% SDS, 0.25% bromophenol blue, and 0.25% xylene cyanol) and heating to 95°C. Reaction products were separated on 6% acrylamide, 7 M urea sequencing gels. Gels were dried and exposed utilizing phosphorimager screens (GE Healthcare) and scanned in a Molecular Dynamics Typhoon Phosphorimager (GE Healthcare). Product analysis and quantification were conducted using ImageQuant and GraphPad Prism 4.0 software. Quantification of standard error of the mean (SEM) was performed with GraphPad Prism 4.0 software.

[9] = biological target: T2, HIV-1 subtype B integrase (Human immunodeficiency virus type 1, UniProt P12497); assay: Disintegration assay; format: biochemical; details: increasing inhibitor concentration
From the text: Oligonucleotides were purchased from Invitrogen and then PAGE purified.
ATP (Perkin Elmer). Unincorporated nucleotides were discarded utilizing 'NucAway columns' (Ambion).

[10] = biological target: T1, HIV-1 subtype C integrase; details: read-out: Strand Transfer IC50, Mg2+-based microtiter plate assay, 95% confidence interval in brackets
Procedure: A microtiter plate assay was utilized to evaluate MgCl2-mediated strand transfer as previously described. Briefly, biotinylated oligonucleotides mimicking LTR donor DNA (5'-biotin-[…] and 5'-[…]) were immobilized onto black-colour Reacti-Bind Streptavidin-coated plates (ThermoFisher). 313 nM recombinant enzyme was bound to donor DNA on the plates in the presence of 25 mM […] and the plates were then washed to remove excess unbound enzyme. […] Covalently linked target DNA was detected through use of an anti-FITC antibody conjugated to alkaline phosphatase (Roche) and a chemiluminescence substrate (CSPD Sapphire II, Applied Biosystems). Integrase inhibitors were added at increasing concentrations shortly before the addition of target DNA. Strand transfer was evaluated by chemiluminescence.

[11] = biological target: T2, HIV-1 subtype B integrase; format: biochemical; details: Mg2+-based microtiter plate assay, 95% confidence interval in brackets, read-out: Strand Transfer IC50
Procedure: A microtiter plate assay was utilized to evaluate MgCl2-mediated strand transfer as previously described [24, 31]. Briefly, biotinylated oligonucleotides mimicking LTR donor DNA (5'-biotin-[sequence] and 5'-[sequence]) were immobilized onto black-colour Reacti-Bind Streptavidin-coated plates (ThermoFisher). 313 nM recombinant enzyme was bound to donor DNA on the plates in the presence of 25 mM MnCl2 and the plates were then washed to remove excess unbound enzyme. […] Covalently linked target DNA was detected through use of an anti-FITC antibody conjugated to alkaline phosphatase (Roche) and a chemiluminescence substrate (CSPD Sapphire II, Applied Biosystems). Integrase inhibitors were added at increasing concentrations shortly before the addition of target DNA. Strand transfer was evaluated by chemiluminescence.

[12] = test system: Subtype B virus 5326; assay: Cell culture phenotypic drug susceptibility assay (p24 antigen) in cord blood mononuclear cells; format: cell-based, HIV-1; details: read-out: EC50 Values
Procedure: as §1

[13] = test system: Subtype C virus Mole 03; assay: as above; format: cell-based, HIV-1
Procedure: as §1

[14] = test system: Subtype B virus BK 132; assay: as above; format: cell-based, HIV-1; details: read-out: EC50 Values
Procedure: as §1

[15] = biological target: T2, HIV-1 subtype B integrase; format: biochemical; details: Mn2+-based assay, 95% confidence interval in brackets
Procedure: as §2
Concentrations of enzymes used in the following reactions were optimized in a series of preliminary experiments. Integrase reactions were performed in a buffer containing 20 mM Hepes (pH 7.5), 30 mM NaCl, 1 mM dithiothreitol, 125 μM ZnCl2 and 0.125 pmol dsDNA substrate (INT1/2) in a final volume of 10 μl. […] Product analysis and quantification were conducted using ImageQuant and GraphPad Prism 4.0 software. Quantification of standard error of the mean (SEM) was performed with GraphPad Prism 4.0 software.

[16] = Human immunodeficiency virus 1, read-out: EC50 Values

SMILES	EC50 [1, 16]	EC50 [2, 16]	EC50 [3, 16]	EC50 ([4]; IIIB)	EC50 [5, 16]	EC50 [6]	EC50 [7]	Inhibition of disintegration [8]	Inhibition of disintegration [9]	also measured
COc1cc2c(cc1Cc1cccc(Cl)c1F)c(=O)c(C(=O)O)cn2[C@H](CO)C(C)C [EVG, elvitegravir]	2.2 ± 0.2 nM	0.1 ± 0.01 nM	0.8 ± 0.6 nM	1.8 ± 0.6 nM	0.8 ± 0.04 nM	0.1 ± 0.07 nM	0.9 ± 0.3 nM	neither RAL nor EVG had much effect	neither RAL nor EVG had much effect	
CCN1C[C@H](C)n2c(c(O)c3c(=O)n(Cc4ccc(F)c(Cl)c4)nc(C(=O)NC)c32)C1=O [MK-2048]								inhibited by high concentrations of MK-2048	inhibited by high concentrations of MK-2048	IC50 [10]: 2.3 nM; IC50 [11]: 4.7 nM; EC50 ([1]; Subtype C virus 4742, cord blood mononuclear cells, p24 antigen, read-out: EC50 Values): 3.3 ± 2 nM; EC50 ([12]; Subtype B virus 5326, cord blood mononuclear cells, p24 antigen): 7.2 ± 2.1 nM; EC50 ([2]; Subtype C virus HB-1, cord blood mononuclear cells, p24 antigen, read-out: EC50 Values): 0.7 ± 0.5 nM; EC50 ([3]; Subtype C virus 96USNG31, cord blood mononuclear cells, p24 antigen, read-out: EC50 Values): 1.5 ± 0.1 nM; EC50 ([4]; Subtype B virus IIIb, cord blood mononuclear cells, p24 antigen): 0.3 ± 0.1 nM; EC50 ([5]; Subtype C virus BG-05, cord blood mononuclear cells, p24 antigen, read-out: EC50 Values): 2.2 ± 0.7 nM; EC50 ([6]; Subtype B virus 5331, cord blood mononuclear cells, p24 antigen): 1 ± 0.2 nM; EC50 ([13]; Subtype C virus Mole 03, cord blood mononuclear cells, p24 antigen, read-out: EC50 Values): 1.1 ± 0.1 nM; EC50 ([14]; Subtype B virus BK 132, cord blood mononuclear cells, p24 antigen): 14.8 ± 3.2 nM; EC50 ([7]; Subtype B virus pNL4-3, cord blood mononuclear cells, p24 antigen): 2.7 ± 0.9 nM; IC50 ([8]; read-out: 3' Processing IC50, Mn2+-based assay, 95% confidence interval in brackets): 190 nM; IC50 ([8]; read-out: Strand Transfer IC50, Mn2+-based assay, 95% confidence interval in brackets): 80 nM; IC50 ([15]; read-out: 3' Processing IC50): 580 nM; IC50 ([15]; read-out: Strand Transfer IC50): 75 nM
Cc1nnc(C(=O)NC(C)(C)c2nc(C(=O)NCc3ccc(F)cc3)c(O)c(=O)n2C)o1 [RAL, raltegravir]	20.6 ± 9 nM	1.5 ± 0.4 nM	8.7 ± 0.7 nM	1.2 ± 0.5 nM	6.7 ± 0.9 nM	5.6 ± 2.2 nM	8.2 ± 1.3 nM	neither RAL nor EVG had much effect	neither RAL nor EVG had much effect	EC50 [12]: 24.3 ± 2.5 nM; EC50 [13, 16]: 4.6 ± 0.2 nM; EC50 [14]: 30.1 ± 5.4 nM
